Source: article PMC9177597, “Structural basis of substrate recognition and translocation by human very long-chain fatty acid transporter ABCD1” (Nature Communications, 2022)

Key:
[1] = molecular target: chimeric ABCD1, C-terminal helix truncated variant (ΔGlu694-Thr745) (Caenorhabditis elegans | human) (UniProt O45730)
[2] = molecular target: T1, chABCD1 (chimeric ABCD1) (Homo sapiens, UniProt P33897); experiment: substrate-stimulated ATPase assay (colorimetric Pi release); type: biochemical
T1 construct: single polypeptide: N-terminal FLAG tag, PMP-4 residues 1-65 replacing human ABCD1 residues 1-63, then human ABCD1 64-745; HEK293F; homodimer; LMNG/CHS for assays, digitonin for cryo-EM; with PMP-4 (peroxisomal membrane protein related, ABCD1 homolog, Caenorhabditis elegans; N-terminal segment fused to the target chain)
T1 sequence (P33897 64-745): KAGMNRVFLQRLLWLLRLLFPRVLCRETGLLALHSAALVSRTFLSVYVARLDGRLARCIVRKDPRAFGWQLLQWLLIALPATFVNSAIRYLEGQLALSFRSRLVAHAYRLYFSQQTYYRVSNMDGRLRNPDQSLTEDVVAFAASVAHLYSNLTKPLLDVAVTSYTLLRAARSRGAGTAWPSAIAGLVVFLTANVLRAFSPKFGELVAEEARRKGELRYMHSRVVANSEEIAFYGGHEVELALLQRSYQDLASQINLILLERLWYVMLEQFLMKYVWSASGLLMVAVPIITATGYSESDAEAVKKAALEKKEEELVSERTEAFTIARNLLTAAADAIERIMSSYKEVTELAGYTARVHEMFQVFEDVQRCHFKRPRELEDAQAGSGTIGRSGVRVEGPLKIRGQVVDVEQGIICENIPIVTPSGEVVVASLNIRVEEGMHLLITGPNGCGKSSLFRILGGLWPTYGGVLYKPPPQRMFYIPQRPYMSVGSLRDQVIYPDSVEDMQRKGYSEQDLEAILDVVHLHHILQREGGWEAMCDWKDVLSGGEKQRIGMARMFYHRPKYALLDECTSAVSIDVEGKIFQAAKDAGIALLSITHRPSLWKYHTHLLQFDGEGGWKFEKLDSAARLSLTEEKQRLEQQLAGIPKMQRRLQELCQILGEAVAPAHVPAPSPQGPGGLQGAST

[3] = molecular target: T1, chABCD1 (chimeric ABCD1); experiment: ATPase assay (colorimetric Pi release); type: biochemical; settings: varying ATP, with or without C22:0-CoA, 2 mM MgCl2, LMNG + CHS, pH 7.5, 37 °C; Michaelis-Menten fit

Row | Molecule | EC50 [2] [µM] | further results
1 | chimeric ABCD1, C-terminal helix truncated variant (ΔGlu694-Thr745) (from UniProt O45730 1-65; P33897 64-693) | – | Vmax of C22:0-CoA-stimulated ATPase activity (LMNG + CHS, 2 mM ATP) (mol Pi/min/mol protein) [1]: 17.5
2 | CCCCCCCCCCCCCCCCCCCCCCCCCC(=O)SCCNC(=O)CCNC(=O)[C@H](O)C(C)(C)COP(=O)(O)OP(=O)(O)OC[C@H]1O[C@@H](n2cnc3c(N)ncnc32)[C@H](O)[C@@H]1OP(=O)(O)O [C26:0-CoA] | ~2 | –
3 | Nc1ncnc2c1ncn2[C@@H]1O[C@H](COP(=O)(O)OP(=O)(O)OP(=O)(O)O)[C@@H](O)[C@H]1O [ATP] | – | Km [3]: The data points were fitted with a Michaelis-Menten equation
4 | CCCCCCCCCCCCCCCCCCCCCCCC(=O)SCCNC(=O)CCNC(=O)[C@H](O)C(C)(C)COP(=O)(O)OP(=O)(O)OC[C@H]1O[C@@H](n2cnc3c(N)ncnc32)[C@H](O)[C@@H]1OP(=O)(O)O [C24:0-CoA] | ~2 | –
